In patent publication US12116343B2, “Inhibitors of APOL1 and methods of using same” (Vertex Pharmaceuticals Incorporated, priority 2020, dated 2024):

These molecules were tested against T1, G1 APOL1 (Homo sapiens, UniProt O14791, I384M/S342G) (assay: Acute APOL1 Thallium Assay with inducible stable clones of HEK 293 cells). Conditions: HEK 293 T-Rex cells expressing G1 APOL1; read-out: Thallium Assay (IC50).
T1 construct: expressed in transfected cells
T1 sequence (O14791 28-398 S342G/I384M): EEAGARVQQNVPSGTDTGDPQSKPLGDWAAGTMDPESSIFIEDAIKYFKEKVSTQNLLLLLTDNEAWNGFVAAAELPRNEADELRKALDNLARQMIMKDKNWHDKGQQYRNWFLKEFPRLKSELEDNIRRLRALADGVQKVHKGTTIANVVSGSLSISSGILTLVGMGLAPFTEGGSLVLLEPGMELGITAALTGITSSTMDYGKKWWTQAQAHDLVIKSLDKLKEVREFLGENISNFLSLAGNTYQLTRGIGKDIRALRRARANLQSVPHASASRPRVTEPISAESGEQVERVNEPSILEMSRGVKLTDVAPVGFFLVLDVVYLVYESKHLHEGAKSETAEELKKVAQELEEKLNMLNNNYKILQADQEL
Assay type: cell-based
How it was run: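 Tetracycline-inducible HEK293 T-Rex clone G1 DC3.25 expressing G1 APOL1, plated at 26000 cells/well in Opti-MEM with tetracycline induction. APOL1 pore activity read on FLIPR as fluorescence increase from Tl+ influx into cells loaded with a Tl+-sensitive AM-ester dye.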
With `O=C1NCC[C@H]1NC(=O)[C@H]1C[C@H](c2c(-c3ccc(F)cc3)[nH]c3c(F)cc(F)cc32)C1` [Compound 45] the IC50 was 250 to 1000 nM. For `O=C([C@H]1C[C@H](c2c(-c3ccc(F)cc3)[nH]c3c(F)cc(F)cc32)C1)N1CCC(O)(CO)CC1` [Compound 87], the IC50 was greater than 1000 nM. `CC(NC(=O)[C@H]1C[C@H](c2c(-c3ccc(F)cc3)[nH]c3c(F)cc(F)cc32)C1)C(N)=O` (mixture of isomers) [Compound 68] showed an IC50 of 250 to 1000 nM. In the case of `CC(N)(C(=O)NC(=O)[C@H]1C[C@H](c2c(-c3ccc(F)cc3)[nH]c3c(F)cc(F)cc32)C1)C(F)(F)F` (stereo partly shown) [Compound 60], the IC50 is reported as greater than 1000 nM. `Cn1cnc(CNC(=O)[C@H]2C[C@H](c3c(-c4ccc(F)cc4)[nH]c4c(F)cc(F)cc43)C2)c1` [Compound 48] showed an IC50 of less than 250 nM. Molecule `CCNC(=O)[C@@H]1CCCN1C(=O)[C@H]1C[C@H](c2c(-c3ccc(F)cc3)[nH]c3c(F)cc(F)cc32)C1` [Compound 64] has an IC50 greater than 1000 nM. Molecule `O=C(CNC(=O)[C@H]1C[C@H](c2c(-c3ccc(F)cc3)[nH]c3c(F)cc(F)cc32)C1)NC1CC1` [Compound 50] has an IC50 greater than 1000 nM. For `NC(=O)C1CCCCN1C(=O)[C@H]1C[C@H](c2c(-c3ccc(F)cc3)[nH]c3c(F)cc(F)cc32)C1` (stereo partly shown) [Compound 92], the IC50 was greater than 1000 nM. In the case of `Cc1cc(CNC(=O)[C@H]2C[C@H](c3c(-c4ccc(F)cc4)[nH]c4c(F)cc(F)cc43)C2)nn1C` [Compound 73], the IC50 is reported as greater than 1000 nM. `O=C(NCC1(O)CCCCC1)[C@H]1C[C@H](c2c(-c3ccc(F)cc3)[nH]c3c(F)cc(F)cc32)C1` [Compound 80] was tested, and the IC50 was greater than 1000 nM. `CN(CC(N)=O)C(=O)[C@H]1C[C@H](c2c(-c3ccc(F)cc3)[nH]c3c(F)cc(F)cc32)C1` [Compound 51] was tested, and the IC50 was 250 to 1000 nM. Molecule `O=C(NCC1CCOCC1)[C@H]1C[C@H](c2c(-c3ccc(F)cc3)[nH]c3c(F)cc(F)cc32)C1` [Compound 42] has an IC50 greater than 1000 nM. `O=C([C@H]1C[C@H](c2c(-c3ccc(F)cc3)[nH]c3c(F)cc(F)cc32)C1)N1C[C@@H](CO)OCC12CC2` [Compound 57] showed an IC50 greater than 1000 nM. Work on `COCC1(CNC(=O)[C@H]2C[C@H](c3c(-c4ccc(F)cc4)[nH]c4c(F)cc(F)cc43)C2)CC1` [Compound 53] yielded an IC50 greater than 1000 nM. With `CC1(O)CN(C(=O)[C@H]2C[C@H](c3c(-c4ccc(F)cc4)[nH]c4c(F)cc(F)cc43)C2)C1` [Compound 74] the IC50 was 250 to 1000 nM. For `NC(=O)[C@@H]1CCCN1C(=O)[C@H]1C[C@H](c2c(-c3ccc(F)cc3)[nH]c3c(F)cc(F)cc32)C1` [Compound 88], the IC50 was greater than 1000 nM. Work on `O=C([C@H]1C[C@H](c2c(-c3ccc(F)cc3)[nH]c3c(F)cc(F)cc32)C1)N(CCO)C1CC1` [Compound 52] yielded an IC50 of 250 to 1000 nM. `NCCCNC(=O)[C@H]1C[C@H](c2c(-c3ccc(F)cc3)[nH]c3c(F)cc(F)cc32)C1` [Compound 4] was tested, and the IC50 was 250 to 1000 nM. `NC(=O)CNC(=O)[C@H]1C[C@H](c2c(-c3ccc(F)cc3)[nH]c3c(F)cc(F)cc32)C1` [Compound 1, N-(2-amino-2-oxo-ethyl)-3-[5,7-difluoro-2-(4-fluorophenyl)-1H-indol-3-yl]cyclobutanecarboxamide] gave an IC50 of less than 250 nM. In the case of `C[C@@H](NC(=O)[C@H]1C[C@H](c2c(-c3ccc(F)cc3)[nH]c3c(F)cc(F)cc32)C1)C(=O)N(C)C` [Compound 61], the IC50 is reported as greater than 1000 nM. `O=C(NC(CO)CF)[C@H]1C[C@H](c2c(-c3ccc(F)cc3)[nH]c3c(F)cc(F)cc32)C1` (stereo partly shown) [Compound 78] was tested, and the IC50 was less than 250 nM. Work on `O=C(NCCO)[C@H]1C[C@H](c2c(-c3ccc(F)cc3)[nH]c3c(F)cc(F)cc32)C1` [Compound 46, 3-[5,7-difluoro-2-(4-fluorophenyl)-1H-indol-3-yl]-N-(2-hydroxyethyl)cyclobutanecarboxamide] yielded an IC50 of less than 250 nM. Work on `CC(C)N1CCN(C(=O)[C@H]2C[C@H](c3c(-c4ccc(F)cc4)[nH]c4c(F)cc(F)cc43)C2)CC1=O` [Compound 63] yielded an IC50 greater than 1000 nM. For `CC(NC(=O)[C@H]1C[C@H](c2c(-c3ccc(F)cc3)[nH]c3c(F)cc(F)cc32)C1)c1ccn[nH]1` (mixture of isomers) [Compound 81], the IC50 was 250 to 1000 nM. For `CCOCC1(CNC(=O)[C@H]2C[C@H](c3c(-c4ccc(F)cc4)[nH]c4c(F)cc(F)cc43)C2)CC1` [Compound 55], the IC50 was greater than 1000 nM. In the case of `O=C([C@H]1C[C@H](c2c(-c3ccc(F)cc3)[nH]c3c(F)cc(F)cc32)C1)N1CCCCC1CCO` (stereo partly shown) [Compound 94], the IC50 is reported as greater than 1000 nM. For `O=C(NCC1(CO)COC1)[C@H]1C[C@H](c2c(-c3ccc(F)cc3)[nH]c3c(F)cc(F)cc32)C1` [Compound 83], the IC50 was greater than 1000 nM. `Cn1ccc(CNC(=O)[C@H]2C[C@H](c3c(-c4ccc(F)cc4)[nH]c4c(F)cc(F)cc43)C2)n1` [Compound 71] showed an IC50 of 250 to 1000 nM. `C[C@H](NC(=O)[C@H]1C[C@H](c2c(-c3ccc(F)cc3)[nH]c3c(F)cc(F)cc32)C1)C(=O)N(C)C` [Compound 65] was tested, and the IC50 was 250 to 1000 nM. For `O=C1CC(NC(=O)[C@H]2C[C@H](c3c(-c4ccc(F)cc4)[nH]c4c(F)cc(F)cc43)C2)CN1` (mixture of isomers) [Compound 44], the IC50 was greater than 1000 nM. `O=C(NC1(CCO)CC1)[C@H]1C[C@H](c2c(-c3ccc(F)cc3)[nH]c3c(F)cc(F)cc32)C1` [Compound 59] showed an IC50 of 250 to 1000 nM. In the case of `NCC(O)CNC(=O)[C@H]1C[C@H](c2c(-c3ccc(F)cc3)[nH]c3c(F)cc(F)cc32)C1` (stereo partly shown) [Compound 3], the IC50 is reported as 250 to 1000 nM. Work on `CN(CC1(CO)CC1)C(=O)[C@H]1C[C@H](c2c(-c3ccc(F)cc3)[nH]c3c(F)cc(F)cc32)C1` [Compound 49] yielded an IC50 greater than 1000 nM. With `O=C(OC1CN(C(=O)[C@H]2C[C@H](c3c(-c4ccc(F)cc4)[nH]c4c(F)cc(F)cc43)C2)C1)C1CCOCC1` [Compound 85] the IC50 was 250 to 1000 nM. In the case of `O=C(NCC1CC(F)(F)C1)[C@H]1C[C@H](c2c(-c3ccc(F)cc3)[nH]c3c(F)cc(F)cc32)C1` [Compound 41], the IC50 is reported as greater than 1000 nM. `CC(=O)NC1CCCN(C(=O)[C@H]2C[C@H](c3c(-c4ccc(F)cc4)[nH]c4c(F)cc(F)cc43)C2)C1` (stereo partly shown) [Compound 91] was tested, and the IC50 was greater than 1000 nM. `C[C@H](O)CNC(=O)[C@H]1C[C@H](c2c(-c3ccc(F)cc3)[nH]c3c(F)cc(F)cc32)C1` [Compound 82] showed an IC50 of 250 to 1000 nM. In the case of `CC1C[C@H](NC(=O)[C@H]2C[C@H](c3c(-c4ccc(F)cc4)[nH]c4c(F)cc(F)cc43)C2)C(=O)N1` (mixture of isomers) [Compound 84], the IC50 is reported as greater than 1000 nM. For `CN(CC(C)(C)O)C(=O)[C@H]1C[C@H](c2c(-c3ccc(F)cc3)[nH]c3c(F)cc(F)cc32)C1` [Compound 93], the IC50 was greater than 1000 nM. Molecule `O=C(NCC1(O)CCCC1)[C@H]1C[C@H](c2c(-c3ccc(F)cc3)[nH]c3c(F)cc(F)cc32)C1` [Compound 69] has an IC50 greater than 1000 nM. `CN(CCO)C(=O)[C@H]1C[C@H](c2c(-c3ccc(F)cc3)[nH]c3c(F)cc(F)cc32)C1` [Compound 79] gave an IC50 of less than 250 nM. `CC(O)CN(C)C(=O)[C@H]1C[C@H](c2c(-c3ccc(F)cc3)[nH]c3c(F)cc(F)cc32)C1` (stereo partly shown) [Compound 90] showed an IC50 greater than 1000 nM. In the case of `CN1CC(CNC(=O)[C@H]2C[C@H](c3c(-c4ccc(F)cc4)[nH]c4c(F)cc(F)cc43)C2)CC1=O` (stereo partly shown) [Compound 70], the IC50 is reported as greater than 1000 nM. Molecule `O=C(NC1(CO)CC1)[C@H]1C[C@H](c2c(-c3ccc(F)cc3)[nH]c3c(F)cc(F)cc32)C1` [Compound 47] has an IC50 of 250 to 1000 nM. Molecule `CC(C)(O)C1CN(C(=O)[C@H]2C[C@H](c3c(-c4ccc(F)cc4)[nH]c4c(F)cc(F)cc43)C2)C1` [Compound 86] has an IC50 greater than 1000 nM. For `O=C1NCCC1NC(=O)[C@H]1C[C@H](c2c(-c3ccc(F)cc3)[nH]c3c(F)cc(F)cc32)C1` (stereo partly shown) [Compound 2], the IC50 was less than 250 nM. `CN(C)C(=O)CN(C)C(=O)[C@H]1C[C@H](c2c(-c3ccc(F)cc3)[nH]c3c(F)cc(F)cc32)C1` [Compound 62] showed an IC50 of 250 to 1000 nM. Molecule `CC(NC(=O)[C@H]1C[C@H](c2c(-c3ccc(F)cc3)[nH]c3c(F)cc(F)cc32)C1)c1ccnn1C` (mixture of isomers) [Compound 76] has an IC50 greater than 1000 nM. Molecule `CC(NC(=O)[C@H]1C[C@H](c2c(-c3ccc(F)cc3)[nH]c3c(F)cc(F)cc32)C1)c1ccn(C)n1` (mixture of isomers) [Compound 75] has an IC50 of 250 to 1000 nM. In the case of `COCC1(NC(=O)[C@H]2C[C@H](c3c(-c4ccc(F)cc4)[nH]c4c(F)cc(F)cc43)C2)CC1` [Compound 54], the IC50 is reported as less than 250 nM. Work on `CC(C)(NC(=O)[C@H]1C[C@H](c2c(-c3ccc(F)cc3)[nH]c3c(F)cc(F)cc32)C1)C(=O)N1CCOCC1` [Compound 66] yielded an IC50 greater than 1000 nM. `COCc1cc(CNC(=O)[C@H]2C[C@H](c3c(-c4ccc(F)cc4)[nH]c4c(F)cc(F)cc43)C2)n[nH]1` [Compound 72] was tested, and the IC50 was greater than 1000 nM. `CN1CCN(C(=O)CNC(=O)[C@H]2C[C@H](c3c(-c4ccc(F)cc4)[nH]c4c(F)cc(F)cc43)C2)CC1` [Compound 67] gave an IC50 greater than 1000 nM. For `NC(=O)C1(NC(=O)[C@H]2C[C@H](c3c(-c4ccc(F)cc4)[nH]c4c(F)cc(F)cc43)C2)CC1` [Compound 56], the IC50 was 250 to 1000 nM. `CN(C(=O)[C@H]1C[C@H](c2c(-c3ccc(F)cc3)[nH]c3c(F)cc(F)cc32)C1)C1(CO)CC1` [Compound 58] gave an IC50 of 250 to 1000 nM.

Same assay, conditions: Table 24, Compounds 287 to 465; read-out: Thallium Assay (IC50)
`NC(=O)CC1CC(c2c(-c3ccc(F)cc3)[nH]c3c(F)cc(F)cc23)C1` (stereo not shown) [Compound 455] was tested, and the IC50 was less than 250 nM. `NC(=O)CNC[C@H]1C[C@@H](c2c(-c3ccc(F)cc3)[nH]c3c(F)cc(F)cc32)C1` [Compound 447] was tested, and the IC50 was less than 250 nM.

Same assay, conditions: Thallium Assay (IC50), HEK 293 T-Rex cells expressing G1 APOL1
Work on `O=C([C@H]1C[C@H](c2c(-c3ccc(F)cc3)[nH]c3c(F)cc(F)cc32)C1)N1CCC(O)(O)CC1` [Compound 127] yielded an IC50 greater than 1000 nM.
